Laboratory results taken from patent EP1919471B1, “(INDOL-3-YL)-HETEROCYCLE DERIVATIVES AS AGONISTS OF THE CANNABINOID CB1 RECEPTOR” (Merck Sharp & Dohme B.V., priority 2005, dated 2007).

Key:
human CB1 receptor = target: T1, human CB1 receptor (Homo sapiens, UniProt P21554); test: In-vitro determination of efficacy and potency at the human CB1 receptor expressed in CHO cells (luciferase reporter assay); type: cell-based; details: CHO cells expressing the human CB1 receptor and a luciferase reporter gene; 5 h at 37 °C
T1 construct: expressed in transfected cells; host or cells: CHO (Chinese Hamster Ovary) cells
T1 sequence (P21554 whole entry): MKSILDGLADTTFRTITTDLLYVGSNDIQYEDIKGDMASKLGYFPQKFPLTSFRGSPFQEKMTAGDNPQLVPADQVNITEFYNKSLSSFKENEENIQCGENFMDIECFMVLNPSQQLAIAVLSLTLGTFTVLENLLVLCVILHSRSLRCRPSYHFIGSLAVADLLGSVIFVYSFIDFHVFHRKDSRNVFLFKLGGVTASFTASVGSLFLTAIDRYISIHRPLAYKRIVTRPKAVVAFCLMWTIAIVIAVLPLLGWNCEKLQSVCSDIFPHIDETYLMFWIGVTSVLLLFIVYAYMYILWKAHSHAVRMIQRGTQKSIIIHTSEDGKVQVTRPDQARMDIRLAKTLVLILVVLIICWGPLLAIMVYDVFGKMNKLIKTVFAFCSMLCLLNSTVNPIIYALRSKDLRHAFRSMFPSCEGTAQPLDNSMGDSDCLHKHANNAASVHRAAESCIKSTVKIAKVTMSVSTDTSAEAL
Method: Methods to determine receptor binding as well as in vitro biological activity of cannabinoid receptor modulators are well known in the art. In general, expressed receptor is contacted with the compound to be tested and binding or stimulation or inhibition of a functional response is measured. To measure a functional response isolated DNA encoding the CB1 receptor gene, preferably the human receptor, is expressed in suitable host cells. Such a cell might be the Chinese Hamster Ovary cell, but other cells are also suitable. Preferably the cells are of mammalian origin. Methods to construct recombinant CB1 expressing cell lines are well known in the art (Sambrook et al, Molecular Cloning: a Laboratory Manual, Cold Spring Harbor Laboratory Press, Cold Spring Harbor, latest edition). Expression of the receptor is attained by expression of the DNA encoding the desired protein. Techniques for ligation of additional sequences and construction of suitable expression systems are all, by now, well known in the art. Portions or all of the DNA encoding the desired protein can be constructed synthetically using standard solid phase techniques, preferably to include restriction sites for ease of ligation. Suitable control elements for transcription and translation of the included coding sequence can be provided to the DNA coding sequences. As is well known, expression systems are now available which are compatible with a wide variety of hosts, including prokaryotic hosts such as bacteria and eukaryotic hosts such as yeast, plant cells, insect cells, mammalian cells, avian cells and the like. Cells expressing the receptor are then contacted with the test compound to observe binding, or stimulation or inhibition of a functional response. Alternatively isolated cell membranes containing the expressed CB1 (or CB2) receptor may be used to measure binding of compound. For measurement of binding radioactively or fluorescently labelled compounds may be used. The most widely used radiolabelled cannabinoid probe is [^3H]CP55940, which has approximately equal affinity for CB1 and CB2 binding sites. Functional CB1 agonist activity may be measured by determining the second messenger response, such as for example measurement of receptor mediated changes in cAMP or MAPkinase pathways. Thus, such a method involves expression of the CB1 receptor on the cell surface of a host cell and exposing the cell to the test compound. The second messenger response is then measured. The level of second messenger will be reduced or increased, depending on the effect of the test compound upon binding to the receptor.
In-vitro determination of efficacy and potency at the human CB1 receptor expressed in CHO cells
Chinese Hamster Ovary (CHO) cells expressing the human CB1 receptor and a luciferase reporter gene were suspended in phenol red/serum free DMEM/F-12 nut mix containing penicillin/streptomycin (50U/50 µg/ml) and fungizone (1 µg/ml) and seeded into 96 well plates at a density of 3 x 10^4 cells per well (100 µl final volume). Cells were incubated overnight (approx. 18 h at 37°C, 5% CO2/95% air) prior to assay. The test compound (10 mM solution in dimethylsulfoxide) was diluted in F12 Nut Mix to give a range of stock solutions from 0.11 mM to 0.11 nM. The stock solutions (10 µl) were added directly to the relevant wells. The plates were incubated at 37 °C for 5 h to allow agonist-induced expression of the luciferase enzyme. Under subdued light, LucLite substrate (Packard; reconstituted as per manufacturer's instructions; 100 µl) was added to each well. Plates were covered with Top Seal and then incubated at room temperature for 5 minutes before counting on the Packard TopCount (single photon counting, 0.01 minute count time, 5 minute count delay). A "best-fit" curve was fitted by a minimum sum of squares method to the plot of counts per second (CPS) against compound concentration (M) to obtain an EC50 value. […]

Mice = test: Formalin Paw Test in Mice; type: in vivo; details: Mus musculus, iv, administered intravenously 5 minutes before 5% formalin, Phase 2 = between 20 and 30 min after formalin injection, read-out: ED50, inhibition of the nociceptive behaviour of Phase 2
Method: Formalin Paw Test in Mice
Four - six groups of six mice were treated with vehicle and one of four to five doses of the test compound (typically between 0.03, 0.1, 3 and 10 µmol/kg), administered intravenously into the tail vein (vehicle: 10% Tween-80 in saline; injection volume 10 ml/kg). This injection was followed 5 minutes later by 20 µl of 5% formalin, which was administered sub-cutaneously to the dorsum of the left hind paw. Immediately after formalin administration the animal was placed in a test chamber and data acquisition, using a detection device (Automated Nociception Analyser (ANA); Department of Anesthesiology, University of California, San Diego), was started, independently for each chamber. The nociceptive behaviour was measured as the number of counts (licking, lifting, biting and flinching actions) detected within the two phases of nociception (Yaksh et al, 2001). The nociceptive behaviour between 0 and 5 min after formalin injection (Phase 1) and between 20 and 30 min after formalin injection (Phase 2) was recorded and number of counts for each mouse, compared to the mean number of counts for the vehicle treated animals, was calculated. Once values for each mouse were obtained, the mean and s.e.m. were calculated for each treatment group. The percent inhibition data were then used to calculate ED50 values for Phase 1 and Phase 2.

| Molecule | pEC50 (human CB1 receptor) | EC50 (human CB1 receptor) [nM] | ED50 (Mice) [µmol/kg] |
| --- | --- | --- | --- |
| O=C(NCCO)[C@H]1CCCN(Cc2nc(-c3cn(CC4CCS(=O)(=O)CC4)c4c(Cl)cccc34)ns2)C1 [Example 13, (S)-7-Chloro-3-[(5-{[3-N-(2-hydroxyethyl)carboxamido]piperidin-1-yl}methyl)-([1,2,4]-thiadiazol-3-yl)]-1-(1,1-dioxo-hexahydrothiopyran-4-yl)methyl-1H-indole] | 6.9 | – | – |
| O=C(NCCO)C1CCN(Cc2nc(-c3cn(CC4CCOCC4)c4c(Cl)cccc34)no2)CC1 [Example 19, 7-Chloro-3-[(5-{4-[(N-{2-hydroxy}ethyl)carboxamido]piperidin-1-yl}methyl)-([1,2,4]oxadiazol-3-yl)]-1-(tetrahydropyran-4-yl)methyl-1H-indole] | – | 79.4 | < 5 |
| CCc1cccc2c(-c3nsc(CN(C)CC(N)=O)n3)cn(CC3CCOCC3)c12 [Example 9, 7-Ethyl-3-[(5-{[N-(carboxamido)methyl]-N-methylamino}methyl)-([1,2,4]-thiadiazol-3-yl)]-1-(tetrahydropyran-4-yl)methyl-1H-indole] | – | 126 | – |
| CCc1cccc2c(-c3nsc(CN4CCC(C(=O)NCCO)CC4)n3)cn(CC3CCOCC3)c12 [Example 10A, 7-Ethyl-3-[(5-{4-[(N-{2-hydroxy}ethyl)carboxamido]piperidin-1-yl}methyl)-([1,2,4]-thiadiazol-3-yl)]-1-(tetrahydropyran-4-yl)methyl-1H-indole] | – | 12.6 | < 5 |
| CS(=O)(=O)N(CCO)Cc1nc(-c2cn(CC3CCOCC3)c3c(Cl)cccc23)ns1 [Example 15, 7-Chloro-3-({5-[(N-{2-hydroxy}ethyl)-(N-{methylsulfonyl})amino]methyl}-([1,2,4]-thiadiazol-3-yl))-1-(tetrahydropyran-4-yl)methyl-1H-indole] | – | 20 | < 5 |
| CN(CC(=O)NCC(N)=O)Cc1nc(-c2cn(CC3CCOCC3)c3c(Cl)cccc23)no1 [Example 20A] | – | 31.6 | – |
| CN(CC(N)=O)Cc1nc(-c2cn(CC3CCOCC3)c3c(Cl)cccc23)no1 [Example 20, 7-Chloro-3-[(5-{[N-(carboxamido)methyl]-N-methylamino}methyl)-([1,2,4]oxadiazol-3-yl)]-1-(tetrahydropyran-4-yl)methyl-1H-indole] | – | 39.8 | < 5 |
| CN(CC(=O)NCCO)Cc1nc(-c2cn(CC3CCOCC3)c3c(Cl)cccc23)no1 [Example 20B, 7-Chloro-3-({5-[(N-{[N-(2-hydroxyethyl)]carboxamido}methyl)-N-methylamino]methyl}-[1,2,4]oxadiazol-3-yl)-1-(tetrahydropyran-4-yl)methyl-1H-indole] | – | 50.1 | – |
| CS(=O)(=O)N1CCC[C@H]1c1nnc(-c2cn(CC3CCOCC3)c3c(Cl)cccc23)o1 [Example 18, (S)-7-Chloro-3-[(5-{N-methylsulfonyl}pyrrolidin-2-yl)-([1,3,4]-oxadiazol-2-yl)]-1-(tetrahydropyran-4-yl)methyl-1H-indole] | 7.2 | – | – |
| OCC1CCN(Cc2nnc(-c3cn(CC4CCCCC4)c4c(Cl)cccc34)o2)CC1 [Example 17, 7-Chloro-3-[(5-{4-[hydroxymethyl]piperidin-1-yl}methyl)-([1,3,4]-oxadiazol-2-yl)]-1-(cyclohexyl)methyl-1H-indole] | – | 126 | – |
| COCCN(Cc1nc(-c2cn(CC3CCOCC3)c3c(Cl)cccc23)ns1)S(C)(=O)=O [Example 7, 7-Chloro-3-({5-[(N-{2-methoxy}ethyl)-(N-{methylsulfonyl})amino]methyl}-([1,2,4]-thiadiazol-3-yl))-1-(tetrahydropyran-4-yl)methyl-1H-indole] | – | 79.4 | – |
| CN(C)S(=O)(=O)N(CCO)Cc1nc(-c2cn(CC3CCOCC3)c3c(Cl)cccc23)no1 [Example 25, 7-Chloro-3-[(5-{N-(N',N'-dimethylsulfonamido)}-(N-{2-hydroxy}ethylamino)methyl)-([1,2,4]-oxadiazol-3-yl)]-1-(tetrahydropyran-4-yl)methyl-1H-indole] | – | 100 | – |
| COCC(=O)NCc1nc(-c2cn(CC3CCOCC3)c3c(Cl)cccc23)no1 [Example 24, 7-Chloro-3-[(5-{[N-methoxymethylformyl]amino}methyl)-([1,2,4]-oxadiazol-3-yl)]-1-(tetrahydropyran-4-yl)methyl-1H-indole] | – | 200 | – |
| 7-Ethyl-3-[(5-{N-[4-(carboxamido)methyl]piperidin-1-yl}methyl)-([1,2,4]-thiadiazol-3-yl)]-1-(tetrahydropyran-4-yl)methyl-1H-indole [Example 12] | 6.9 | – | – |
